Test results: patent US7273848B2, “Apolipoprotein A-I agonists and their use to treat dyslipidemic disorders” (priority 1997, dated 2007)
Non-standard residues stand in square brackets, D forms with d. Residues, ends and D or L forms follow the SMILES beside them. No end group written: not given here. Orn = NCCC[C@H](N)C(=O)O; Aib = CC(C)(N)C(=O)O

Target: T1, LCAT (purified from human plasma) (Homo sapiens, UniProt P04180)
T1 construct: from tissue; host or cells: human plasma
T1 sequence (P04180 25-440): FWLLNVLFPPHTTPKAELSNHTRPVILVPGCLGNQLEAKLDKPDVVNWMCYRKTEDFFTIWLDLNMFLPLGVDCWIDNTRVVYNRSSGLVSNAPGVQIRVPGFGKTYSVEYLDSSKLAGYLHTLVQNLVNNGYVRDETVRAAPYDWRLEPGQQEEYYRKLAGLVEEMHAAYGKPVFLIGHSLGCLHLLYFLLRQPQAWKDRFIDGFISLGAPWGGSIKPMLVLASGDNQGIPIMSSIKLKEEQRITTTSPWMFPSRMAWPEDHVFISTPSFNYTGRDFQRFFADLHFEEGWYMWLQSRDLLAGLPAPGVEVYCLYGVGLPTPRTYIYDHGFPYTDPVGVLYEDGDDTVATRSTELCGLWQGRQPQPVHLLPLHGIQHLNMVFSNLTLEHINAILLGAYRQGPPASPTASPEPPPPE
Experiment: LCAT activation assay
Format: biochemical
Details: LCAT activation as compared with native human ApoA-I (= 100%), equivalent masses
Description: The peptides synthesized as described in Section 6, supra, were analyzed in vitro for their ability to activate LCAT. In the LCAT assay, substrate vesicles (small unilamellar vesicles or “SUVs”) composed of egg phophatidylcholine (EPC) or 1-Palmitoyl-2-oleyl-phosphatidyl-choline (POPC) and radiolabelled cholesterol are preincubated with equivalent masses either of peptide or ApoA-I (isolated from human plasma). The reaction is initiated by addition of LCAT (purified from human plasma). Native ApoA-I, which was used as positive control, represents 100% activation activity. “Specific activity” (i.e., units of activity (LCAT activation)/unit of mass) of the peptides can be calculated as the concentration of peptide that achieves maximum LCAT activation. For example, a series of concentrations of the peptide (e.g., a limiting dilution) can be assayed to determine the “specific activity” for the peptide—the concentration which achieves maximal LCAT activation (i.e., percentage conversion of cholesterol to cholesterol ester) at a specific timepoint in the assay (e.g., 1 hr.). When plotting percentage conversion of cholesterol at, e.g., 1 hr., against the concentration of peptide used, the “specific activity” can be identified as the concentration of peptide that achieves a plateau on the plotted curve.
The vesicles used in the LCAT assay are SUVs composed of egg phosphatidylcholine (EPC) or 1-palmitoyl-2-oleyl-phosphatidylcholine (POPC) and cholesterol with a molar ratio of 20:1. To prepare a vesicle stock solution sufficient for 40 assays, 7.7 mg EPC (or 7.6 mg POPC; 10 μmol), 78 μg (0.2 μmol) 4-^14C-cholesterol, 116 μg cholesterol (0.3 μmol) are dissolved in 5 ml xylene and lyophilized. Thereafter 4 ml of assay buffer is added to the dry powder and sonicated under nitrogen atmosphere at 4° C. Sonication conditions: Branson 250 sonicator, 10 mm tip, 6×5 minutes; Assay buffer: 10 mM Tris, 0.14 M NaCl, 1 mM EDTA, pH 7.4). The sonicated mixture is centrifuged 6 times for 5 minutes each time at 14,000 rpm (16,000×g) to remove titanium particles. The resulting clear solution is used for the enzyme assay.
For the LCAT purification, dextran sulfate/Mg^2+ treatment of human plasma is used to obtain lipoprotein deficient serum (LPDS), which is sequentially chromatographed on Phenylsepharose, Affigelblue, ConcanavalinA sepharose and anti-ApoA-I affinity chromatography, as summarized for a representative purification in TABLE IX, below: […]

Compound | ACTIVITY (%) LCAT [%]
CC(C)C[C@H](NC(=O)[C@H](C)NC(=O)[C@H](CC(=O)O)NC(=O)[C@H](CC(C)C)NC(=O)[C@H](CC(C)C)NC(=O)[C@H](CCCNC(=N)N)NC(=O)[C@H](CCC(=O)O)NC(=O)[C@H](CC(C)C)NC(=O)[C@H](CC(C)C)NC(=O)[C@H](CC(N)=O)NC(=O)[C@H](CCC(=O)O)NC(=O)[C@H](Cc1ccccc1)NC(=O)[C@H](CC(C)C)NC(=O)[C@H](CCC(=O)O)NC(=O)[C@H](CC(C)C)NC(=O)[C@@H](NC(=O)[C@@H]1CCCN1)C(C)C)C(=O)N[C@@H](CCC(N)=O)C(=O)N[C@@H](CCCN)C(=O)N[C@@H](CCCN)C(=O)N[C@@H](CC(C)C)C(=O)N[C@@H](CCCN)C(=O)O [compound 185, PVLELFENLLERLLDALQOOLO] (H-PVLELFENLLERLLDALQ[Orn][Orn]L[Orn]-OH) | 3
Ac-PVLELFKELLEELKQKLK-NH2 [compound 195] | 87
PVLDLFRELGNELLEALKQKLK [peptide 9] | 83
Ac-PVLDLLRELLEELKQKLK-NH2 [compound 191] | 100
CC(C)C[C@H](NC(=O)[C@H](CCCCN)NC(=O)[C@H](CCC(N)=O)NC(=O)[C@H](CCCCN)NC(=O)C(C)(C)NC(=O)[C@H](C)NC(=O)[C@H](CCC(=O)O)NC(=O)[C@H](CC(C)C)NC(=O)[C@H](CCC(=O)O)NC(=O)[C@H](CCC(=O)O)NC(=O)[C@H](CC(N)=O)NC(=O)[C@H](CC(C)C)NC(=O)[C@H](CCCCN)NC(=O)[C@H](CCC(=O)O)NC(=O)[C@H](CCCNC(=N)N)NC(=O)[C@H](Cc1ccccc1)NC(=O)[C@H](CCC(=O)O)NC(=O)[C@H](CC(=O)O)NC(=O)[C@H](CC(C)C)NC(=O)[C@@H](NC(=O)[C@@H]1CCCN1)C(C)C)C(=O)N[C@@H](CCCCN)C(=O)O [compound 119, PVLDEFREKLNEELEAXKQKLK] (H-PVLDEFREKLNEELEA[Aib]KQKLK-OH) | 0
GVLELFLNLLERLLDALQKKLK [compound 177] | 10
CC(C)C[C@H](NC(=O)[C@H](C)NC(=O)[C@H](CCC(=O)O)NC(=O)[C@H](CC(C)C)NC(=O)C(C)(C)NC(=O)[C@H](CC(C)C)NC(=O)[C@H](CC(N)=O)NC(=O)[C@H](CC(C)C)NC(=O)[C@H](CC(C)C)NC(=O)[C@H](CCC(=O)O)NC(=O)[C@H](CCCNC(=N)N)NC(=O)[C@H](Cc1ccccc1)NC(=O)[C@H](CC(C)C)NC(=O)[C@H](CC(=O)O)NC(=O)[C@H](CC(C)C)NC(=O)[C@@H](NC(=O)[C@@H]1CCCN1)C(C)C)C(=O)N[C@@H](CCCCN)C(=O)N[C@@H](CCC(=O)O)C(=O)N[C@@H](CCCCN)C(=O)N[C@@H](CC(C)C)C(=O)N[C@@H](CCCCN)C(=O)O [compound 102, PVLDLFRELLNLXLEALKEKLK] (H-PVLDLFRELLNL[Aib]LEALKEKLK-OH) | 2
CC(C)C[C@H](NC(=O)[C@H](C)NC(=O)[C@H](CCC(=O)O)NC(=O)[C@H](CC(C)C)NC(=O)C(C)(C)NC(=O)[C@H](CCC(=O)O)NC(=O)[C@H](CC(N)=O)NC(=O)[C@H](CC(C)C)NC(=O)[C@H](CCCCN)NC(=O)[C@H](CCC(=O)O)NC(=O)[C@H](CCCNC(=N)N)NC(=O)[C@H](Cc1ccccc1)NC(=O)[C@H](CCC(=O)O)NC(=O)[C@H](CC(=O)O)NC(=O)[C@H](CC(C)C)NC(=O)[C@@H](NC(=O)[C@@H]1CCCN1)C(C)C)C(=O)N[C@@H](CCC(=O)O)C(=O)N[C@@H](CCC(N)=O)C(=O)N[C@@H](CCCCN)C(=O)N[C@@H](CC(C)C)C(=O)N[C@@H](CCCCN)C(=O)O [compound 118, PVLDEFREKLNEXLEALEQKLK] (H-PVLDEFREKLNE[Aib]LEALEQKLK-OH) | 0
PVLELFDNLLERLLDALQKKLK [compound 179] | 8
Ac-PLLDLFKELLEELKQKLK-NH2 [compound 201] | 74
CC(=O)N1CCC[C@@H]1C(=O)N[C@H](C(=O)N[C@@H](CC(C)C)C(=O)N[C@@H](CC(=O)O)C(=O)N[C@@H](CC(C)C)C(=O)N[C@@H](Cc1ccccc1)C(=O)N[C@@H](CCCNC(=N)N)C(=O)N[C@@H](CCC(=O)O)C(=O)N[C@@H](CC(C)C)C(=O)N[C@@H](CC(C)C)C(=O)N[C@@H](CCC(=O)O)C(=O)N[C@@H](CCC(=O)O)C(=O)N[C@@H](CC(C)C)C(=O)N[C@@H](CCCCN)C(=O)N[C@@H](CCC(N)=O)C(=O)N[C@@H](CCCCN)C(=O)N[C@@H](CC(C)C)C(=O)N[C@@H](CCCCN)C(N)=O)C(C)C [compound 214] (Ac-[dP]VLDLFRELLEELKQKLK-NH2) | 39
CC(C)C[C@@H](NC(=O)[C@@H](C)NC(=O)[C@@H](CC(=O)O)NC(=O)[C@@H](CC(C)C)NC(=O)[C@@H](CC(C)C)NC(=O)[C@@H](CCCNC(=N)N)NC(=O)[C@@H](CCC(=O)O)NC(=O)[C@@H](CC(C)C)NC(=O)[C@@H](CC(C)C)NC(=O)[C@@H](CC(N)=O)NC(=O)[C@@H](CCC(=O)O)NC(=O)[C@@H](Cc1ccccc1)NC(=O)[C@@H](CC(C)C)NC(=O)[C@@H](CCC(=O)O)NC(=O)[C@@H](CC(C)C)NC(=O)[C@H](NC(=O)[C@H]1CCCN1)C(C)C)C(=O)N[C@H](CCC(N)=O)C(=O)N[C@H](CCCCN)C(=O)N[C@H](CCCCN)C(=O)N[C@H](CC(C)C)C(=O)N[C@H](CCCCN)C(=O)O [compound 174, pvlelfenllerlldalqkklk] (H-[dP][dV][dL][dE][dL][dF][dE][dN][dL][dL][dE][dR][dL][dL][dD][dA][dL][dQ][dK][dK][dL][dK]-OH) | 13
PVLDLLRELLNELLEALKQKLK [compound 16] | 59

Now from value to compound:

ACTIVITY (%) LCAT [%] | Compound
39 | AVLDLFRELLNELLEALKQKLK [compound 29]
0 | Ac-PVLDLFRELGEELKQKLK-NH2 [compound 227]
33 | PVLDLFREKLNELLEALKQKLK [compound 33]
3 | DWFKAFYDKFFEKFKEFF [peptide 247, reference compound]
4 | PVLDLFRELLNELLE [compound 97]
53 | PVLDLFRELLNELLEALQKKLK [peptide 24]
5 | CC(C)C[C@H](NC(=O)[C@H](C)NC(=O)[C@H](CCC(=O)O)NC(=O)[C@H](CC(C)C)NC(=O)C(C)(C)NC(=O)[C@H](CCC(=O)O)NC(=O)[C@H](CC(N)=O)NC(=O)[C@H](Cc1ccc(O)cc1)NC(=O)[C@H](CC(C)C)NC(=O)[C@H](CCC(=O)O)NC(=O)[C@H](CCCNC(=N)N)NC(=O)[C@H](Cc1ccccc1)NC(=O)[C@H](CCC(=O)O)NC(=O)[C@H](CC(=O)O)NC(=O)[C@H](CC(C)C)NC(=O)[C@@H](NC(=O)[C@@H]1CCCN1)C(C)C)C(=O)N[C@@H](CCCCN)C(=O)N[C@@H](CCC(N)=O)C(=O)N[C@@H](CCCCN)C(=O)N[C@@H](CC(C)C)C(=O)N[C@@H](CCCCN)C(=O)O [compound 92, PVLDEFRELYNEXLEALKQKLK] (H-PVLDEFRELYNE[Aib]LEALKQKLK-OH)
54 | PVLDLFRELLNELLEGLKQKLK [compound 22]
8 | PVLELFDNLLDKLLDALQKKLR [compound 180]
25 | CC(C)C[C@H](NC(=O)[C@H](C)NC(=O)[C@H](CCC(=O)O)NC(=O)[C@H](CC(C)C)NC(=O)C(C)(C)NC(=O)[C@H](CCC(=O)O)NC(=O)[C@H](Cc1c[nH]c2ccccc12)NC(=O)[C@H](CC(C)C)NC(=O)[C@H](CCCCN)NC(=O)[C@H](CCC(=O)O)NC(=O)[C@H](CCCNC(=N)N)NC(=O)[C@H](Cc1ccccc1)NC(=O)[C@H](CCC(=O)O)NC(=O)[C@H](CC(=O)O)NC(=O)[C@H](CC(C)C)NC(=O)[C@@H](NC(=O)[C@@H]1CCCN1)C(C)C)C(=O)N[C@@H](CCCCN)C(=O)N[C@@H](CCC(N)=O)C(=O)N[C@@H](CCCCN)C(=O)N[C@@H](CC(C)C)C(=O)N[C@@H](CCCCN)C(=O)O [compound 43, PVLDEFREKLWEXLEALKQKLK] (H-PVLDEFREKLWE[Aib]LEALKQKLK-OH)
2 | PVLDLFRELLNEELEALKQKLK [compound 98]
27 | PVLELFENLLERLLEALQKKLK [compound 161]
54 | PLLELFKELLQELLEALKQKLK [peptide 23]
